# Measured values reported in ChEMBL document CHEMBL5143601, “Rationalizing the binding and α subtype selectivity of synthesized imidazodiazepines and benzodiazepines at GABAA receptors by using molecular docking studies” (Bioorg Med Chem Lett, 2022).
# Target: T1, GABA-A receptor; alpha-1/beta-2/gamma-2 (Homo sapiens, UniProt P14867+P18507+P47870)
# T1 sequence (P14867 whole entry): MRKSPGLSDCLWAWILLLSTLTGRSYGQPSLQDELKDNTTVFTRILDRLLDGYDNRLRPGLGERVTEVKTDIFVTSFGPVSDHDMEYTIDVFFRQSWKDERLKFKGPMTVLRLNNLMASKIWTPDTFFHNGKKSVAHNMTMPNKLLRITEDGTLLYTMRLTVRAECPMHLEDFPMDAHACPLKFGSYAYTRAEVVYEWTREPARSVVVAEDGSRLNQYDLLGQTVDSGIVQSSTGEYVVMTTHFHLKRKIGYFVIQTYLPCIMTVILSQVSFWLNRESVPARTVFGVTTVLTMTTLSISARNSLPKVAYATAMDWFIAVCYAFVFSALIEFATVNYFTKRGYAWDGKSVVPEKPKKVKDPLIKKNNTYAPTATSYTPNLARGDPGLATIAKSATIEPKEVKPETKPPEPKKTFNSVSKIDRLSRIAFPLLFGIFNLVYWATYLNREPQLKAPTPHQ
# T1 sequence (P47870 whole entry): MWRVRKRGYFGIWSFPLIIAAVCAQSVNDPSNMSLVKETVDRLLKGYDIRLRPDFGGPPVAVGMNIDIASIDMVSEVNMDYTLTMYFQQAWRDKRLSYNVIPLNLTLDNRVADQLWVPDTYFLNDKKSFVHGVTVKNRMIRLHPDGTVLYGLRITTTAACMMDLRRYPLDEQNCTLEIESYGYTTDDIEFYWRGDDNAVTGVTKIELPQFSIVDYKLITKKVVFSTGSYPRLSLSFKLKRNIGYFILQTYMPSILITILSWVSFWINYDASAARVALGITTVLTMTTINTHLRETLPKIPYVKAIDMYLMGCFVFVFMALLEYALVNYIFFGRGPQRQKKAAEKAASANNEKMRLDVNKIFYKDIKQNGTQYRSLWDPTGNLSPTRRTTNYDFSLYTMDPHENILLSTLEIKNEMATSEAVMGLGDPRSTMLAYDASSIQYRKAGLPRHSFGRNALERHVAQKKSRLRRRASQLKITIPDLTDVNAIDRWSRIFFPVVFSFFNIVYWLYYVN
# T1 sequence (P18507 whole entry): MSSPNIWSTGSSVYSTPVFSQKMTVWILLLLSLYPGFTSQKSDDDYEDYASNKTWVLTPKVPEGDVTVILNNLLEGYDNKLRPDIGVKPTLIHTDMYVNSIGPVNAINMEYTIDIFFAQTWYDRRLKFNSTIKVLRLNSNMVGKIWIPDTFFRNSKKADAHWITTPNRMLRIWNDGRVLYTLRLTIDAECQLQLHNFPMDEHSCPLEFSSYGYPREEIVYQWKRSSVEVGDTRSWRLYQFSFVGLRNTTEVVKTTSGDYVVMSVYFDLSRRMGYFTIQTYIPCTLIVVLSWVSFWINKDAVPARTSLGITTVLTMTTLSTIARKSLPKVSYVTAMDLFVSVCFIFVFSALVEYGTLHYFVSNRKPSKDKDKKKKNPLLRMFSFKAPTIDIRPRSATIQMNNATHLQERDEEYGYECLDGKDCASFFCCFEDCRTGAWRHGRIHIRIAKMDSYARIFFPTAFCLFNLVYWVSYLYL
# Test: Displacement of [3H]flunitrazepam from human recombinant alpha1beta2gamma2 GABAA receptor expressed in HEK cell membrane by competitive radioligand binding assay
# Type: cell membranes
row,SMILES,Ki
1,C#Cc1ccc2c(c1)C(c1ccccc1)=NCc1nnc(C)n1-2,36.4 nM
2,O=C1CN=C(c2ccccc2)c2ccccc2N1 [RO-052921],288 nM
3,C#Cc1ccc2c(c1)C(c1ccccc1)=N[C@@H](C)c1nnc(C)n1-2,107 nM
4,Cc1nnc2n1-c1ccc(Br)cc1C(c1ccccc1Cl)=NC2,0.5 nM
5,C[C@H]1N=C(c2ccccc2)c2cc(Br)ccc2NC1=O,> 3000 nM
6,Cc1nnc2n1-c1ccc(Br)cc1C(c1ccccn1)=NC2,7.3 nM
7,O=C1CN=C(c2ccccc2F)c2cc(Br)ccc2N1,0.26 nM
8,C#Cc1ccc2c(c1)C(c1ccccc1F)=NCC(=O)N2C,3.9 nM
9,C#Cc1ccc2c(c1)C(c1ccccc1Cl)=NCC(=O)N2C,1.6 nM
10,O=C1CN=C(c2ccccc2Cl)c2cc(Br)ccc2N1 [PHENAZEPAM],0.05 nM
11,C#Cc1ccc2c(c1)C(c1ccccc1Cl)=NCc1nnc(C)n1-2,3.3 nM
12,C#Cc1ccc2c(c1)C(c1ccccn1)=NCc1nnc(C)n1-2,144 nM
13,C#Cc1ccc2c(c1)C(c1ccccc1)=NCC(=O)N2C,76.3 nM
14,C[C@@H]1N=C(c2ccccc2)c2cc(Br)ccc2NC1=O,14.4 nM
15,Cc1nnc2n1-c1ccc(Br)cc1C(c1ccccc1)=NC2,2.8 nM
16,Cc1nnc2n1-c1ccc(Cl)cc1C(c1ccccc1)=NC2 [ALPRAZOLAM],0.8 nM
17,CN1C(=O)CN=C(c2ccccc2)c2cc(Br)ccc21,9.4 nM
18,CN1C(=O)CN=C(c2ccccc2)c2ccccc21,81 nM
19,C#Cc1ccc2c(c1)C(c1ccccc1F)=NCc1nnc(C)n1-2,6.3 nM

# Target: T2, GABA A receptor alpha-2/beta-2/gamma-2 (Homo sapiens, UniProt P18507+P47869+P47870)
# T2 sequence (P47870 whole entry): T1 sequence (P47870 whole entry)
# T2 sequence (P18507 whole entry): T1 sequence (P18507 whole entry)
# T2 sequence (P47869 whole entry): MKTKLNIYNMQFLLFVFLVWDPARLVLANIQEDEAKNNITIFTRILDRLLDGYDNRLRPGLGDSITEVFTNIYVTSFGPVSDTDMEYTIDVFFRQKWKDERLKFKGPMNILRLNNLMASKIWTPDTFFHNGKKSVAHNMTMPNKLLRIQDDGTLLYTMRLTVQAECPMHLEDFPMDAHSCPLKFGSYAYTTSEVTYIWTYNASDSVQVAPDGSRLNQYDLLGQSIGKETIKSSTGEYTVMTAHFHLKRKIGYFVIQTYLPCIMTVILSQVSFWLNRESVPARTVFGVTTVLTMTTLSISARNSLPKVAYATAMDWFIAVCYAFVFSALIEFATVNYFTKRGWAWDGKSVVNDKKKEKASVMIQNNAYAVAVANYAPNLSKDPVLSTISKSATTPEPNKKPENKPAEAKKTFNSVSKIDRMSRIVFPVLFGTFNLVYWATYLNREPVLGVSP
# Test: Displacement of [3H]flunitrazepam from human recombinant alpha2beta2gamma2 GABAA receptor expressed in HEK cell membrane by competitive radioligand binding assay
# Type: cell membranes
row,SMILES,Ki
1,C#Cc1ccc2c(c1)C(c1ccccc1)=NCc1nnc(C)n1-2,25.8 nM
2,O=C1CN=C(c2ccccc2)c2ccccc2N1 [RO-052921],233 nM
3,C#Cc1ccc2c(c1)C(c1ccccc1)=N[C@@H](C)c1nnc(C)n1-2,50.1 nM
4,Cc1nnc2n1-c1ccc(Br)cc1C(c1ccccc1Cl)=NC2,1 nM
5,C[C@H]1N=C(c2ccccc2)c2cc(Br)ccc2NC1=O,> 3000 nM
6,Cc1nnc2n1-c1ccc(Br)cc1C(c1ccccn1)=NC2,6.1 nM
7,O=C1CN=C(c2ccccc2F)c2cc(Br)ccc2N1,0.15 nM
8,C#Cc1ccc2c(c1)C(c1ccccc1F)=NCC(=O)N2C,1.2 nM
9,C#Cc1ccc2c(c1)C(c1ccccc1Cl)=NCC(=O)N2C,0.99 nM
10,O=C1CN=C(c2ccccc2Cl)c2cc(Br)ccc2N1 [PHENAZEPAM],0.06 nM
11,C#Cc1ccc2c(c1)C(c1ccccc1Cl)=NCc1nnc(C)n1-2,0.6 nM
12,C#Cc1ccc2c(c1)C(c1ccccn1)=NCc1nnc(C)n1-2,81.3 nM
13,C#Cc1ccc2c(c1)C(c1ccccc1)=NCC(=O)N2C,42.1 nM
14,C[C@@H]1N=C(c2ccccc2)c2cc(Br)ccc2NC1=O,11 nM
15,Cc1nnc2n1-c1ccc(Br)cc1C(c1ccccc1)=NC2,0.7 nM
16,Cc1nnc2n1-c1ccc(Cl)cc1C(c1ccccc1)=NC2 [ALPRAZOLAM],0.6 nM
17,CN1C(=O)CN=C(c2ccccc2)c2cc(Br)ccc21,9.3 nM
18,CN1C(=O)CN=C(c2ccccc2)c2ccccc21,138 nM
19,C#Cc1ccc2c(c1)C(c1ccccc1F)=NCc1nnc(C)n1-2,2.1 nM

# Target: T3, GABA A receptor alpha-3/beta-2/gamma-2 (Homo sapiens, UniProt P18507+P34903+P47870)
# T3 sequence (P47870 whole entry): T1 sequence (P47870 whole entry)
# T3 sequence (P18507 whole entry): T1 sequence (P18507 whole entry)
# T3 sequence (P34903 whole entry): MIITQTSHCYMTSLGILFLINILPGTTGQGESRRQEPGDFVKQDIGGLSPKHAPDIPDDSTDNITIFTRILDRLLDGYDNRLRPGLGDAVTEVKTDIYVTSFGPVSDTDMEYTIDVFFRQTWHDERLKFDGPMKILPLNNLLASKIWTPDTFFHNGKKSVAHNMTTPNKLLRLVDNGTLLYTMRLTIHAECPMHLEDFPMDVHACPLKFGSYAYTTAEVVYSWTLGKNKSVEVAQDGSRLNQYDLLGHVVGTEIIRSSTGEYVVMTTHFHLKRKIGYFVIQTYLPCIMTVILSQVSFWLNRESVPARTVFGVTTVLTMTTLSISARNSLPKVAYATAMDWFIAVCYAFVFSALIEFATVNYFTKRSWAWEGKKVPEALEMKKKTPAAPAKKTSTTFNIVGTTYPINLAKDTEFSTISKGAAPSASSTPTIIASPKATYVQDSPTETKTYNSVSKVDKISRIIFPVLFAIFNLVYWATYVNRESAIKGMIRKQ
# Test: Displacement of [3H]flunitrazepam from human recombinant alpha3beta2gamma2 GABAA receptor expressed in HEK cell membrane by competitive radioligand binding assay
# Type: cell membranes
row,SMILES,Ki
1,O=C1CN=C(c2ccccc2)c2ccccc2N1 [RO-052921],350 nM
2,C#Cc1ccc2c(c1)C(c1ccccc1)=N[C@@H](C)c1nnc(C)n1-2,20.9 nM
3,Cc1nnc2n1-c1ccc(Br)cc1C(c1ccccc1Cl)=NC2,0.6 nM
4,C[C@H]1N=C(c2ccccc2)c2cc(Br)ccc2NC1=O,> 3000 nM
5,Cc1nnc2n1-c1ccc(Br)cc1C(c1ccccn1)=NC2,5.1 nM
6,O=C1CN=C(c2ccccc2F)c2cc(Br)ccc2N1,0.28 nM
7,C#Cc1ccc2c(c1)C(c1ccccc1F)=NCC(=O)N2C,3.4 nM
8,O=C1CN=C(c2ccccc2Cl)c2cc(Br)ccc2N1 [PHENAZEPAM],0.12 nM
9,C#Cc1ccc2c(c1)C(c1ccccc1Cl)=NCc1nnc(C)n1-2,1.9 nM
10,C#Cc1ccc2c(c1)C(c1ccccn1)=NCc1nnc(C)n1-2,104 nM
11,C#Cc1ccc2c(c1)C(c1ccccc1)=NCC(=O)N2C,47.4 nM
12,C[C@@H]1N=C(c2ccccc2)c2cc(Br)ccc2NC1=O,19.1 nM
13,Cc1nnc2n1-c1ccc(Cl)cc1C(c1ccccc1)=NC2 [ALPRAZOLAM],1.4 nM
14,CN1C(=O)CN=C(c2ccccc2)c2cc(Br)ccc21,31 nM
15,CN1C(=O)CN=C(c2ccccc2)c2ccccc21,318 nM

# Target: T4, Gamma-aminobutyric acid receptor subunit alpha-5/beta-2/gamma-2 (Homo sapiens, UniProt P18507+P31644+P47870)
# T4 sequence (P47870 whole entry): T1 sequence (P47870 whole entry)
# T4 sequence (P18507 whole entry): T1 sequence (P18507 whole entry)
# T4 sequence (P31644 whole entry): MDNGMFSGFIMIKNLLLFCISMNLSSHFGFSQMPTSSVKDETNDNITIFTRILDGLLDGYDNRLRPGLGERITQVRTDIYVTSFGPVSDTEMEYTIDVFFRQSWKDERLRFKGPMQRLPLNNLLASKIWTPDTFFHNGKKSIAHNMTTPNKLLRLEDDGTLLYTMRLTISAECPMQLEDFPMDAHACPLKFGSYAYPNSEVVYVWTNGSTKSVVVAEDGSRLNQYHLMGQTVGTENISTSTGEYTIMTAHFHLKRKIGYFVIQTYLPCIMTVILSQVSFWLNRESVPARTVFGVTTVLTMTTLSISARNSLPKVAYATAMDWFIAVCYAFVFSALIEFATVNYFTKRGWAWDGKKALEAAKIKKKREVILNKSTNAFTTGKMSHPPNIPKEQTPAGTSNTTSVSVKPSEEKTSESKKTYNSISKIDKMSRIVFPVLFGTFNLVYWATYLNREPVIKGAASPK
# Test: Displacement of [3H]flunitrazepam from human recombinant alpha5beta2gamma2 GABAA receptor expressed in HEK cell membrane by competitive radioligand binding assay
# Type: cell membranes
row,SMILES,Ki
1,C#Cc1ccc2c(c1)C(c1ccccc1)=NCc1nnc(C)n1-2,5.3 nM
2,O=C1CN=C(c2ccccc2)c2ccccc2N1 [RO-052921],140 nM
3,C#Cc1ccc2c(c1)C(c1ccccc1)=N[C@@H](C)c1nnc(C)n1-2,8.1 nM
4,Cc1nnc2n1-c1ccc(Br)cc1C(c1ccccc1Cl)=NC2,0.4 nM
5,C[C@H]1N=C(c2ccccc2)c2cc(Br)ccc2NC1=O,> 3000 nM
6,Cc1nnc2n1-c1ccc(Br)cc1C(c1ccccn1)=NC2,7.7 nM
7,O=C1CN=C(c2ccccc2F)c2cc(Br)ccc2N1,0.26 nM
8,C#Cc1ccc2c(c1)C(c1ccccc1F)=NCC(=O)N2C,0.8 nM
9,C#Cc1ccc2c(c1)C(c1ccccc1Cl)=NCC(=O)N2C,1.96 nM
10,O=C1CN=C(c2ccccc2Cl)c2cc(Br)ccc2N1 [PHENAZEPAM],0.68 nM
11,C#Cc1ccc2c(c1)C(c1ccccc1Cl)=NCc1nnc(C)n1-2,4.4 nM
12,C#Cc1ccc2c(c1)C(c1ccccn1)=NCc1nnc(C)n1-2,45.6 nM
13,C#Cc1ccc2c(c1)C(c1ccccc1)=NCC(=O)N2C,6.8 nM
14,C[C@@H]1N=C(c2ccccc2)c2cc(Br)ccc2NC1=O,1.89 nM
15,Cc1nnc2n1-c1ccc(Br)cc1C(c1ccccc1)=NC2,0.6 nM
16,Cc1nnc2n1-c1ccc(Cl)cc1C(c1ccccc1)=NC2 [ALPRAZOLAM],1.5 nM
17,CN1C(=O)CN=C(c2ccccc2)c2cc(Br)ccc21,7.7 nM
18,CN1C(=O)CN=C(c2ccccc2)c2ccccc21,98 nM
19,C#Cc1ccc2c(c1)C(c1ccccc1F)=NCc1nnc(C)n1-2,0.6 nM

# Species: Homo sapiens
# Test: Selectivity ratio of Ki for human recombinant alpha1beta2gamma2 GABAA receptor expressed in HEK cell membrane to Ki for human recombinant alpha5beta2gamma2 GABAA receptor expressed in HEK cell membrane
# Type: cell-based
row,SMILES,Ratio Ki
1,C#Cc1ccc2c(c1)C(c1ccccc1)=NCc1nnc(C)n1-2,6
2,O=C1CN=C(c2ccccc2)c2ccccc2N1 [RO-052921],2
3,C#Cc1ccc2c(c1)C(c1ccccc1)=N[C@@H](C)c1nnc(C)n1-2,13
4,C#Cc1ccc2c(c1)C(c1ccccc1)=NCC(=O)N2C,11
5,C[C@@H]1N=C(c2ccccc2)c2cc(Br)ccc2NC1=O,7
